Experimental findings from article PMC4917206, “Chemical Modification of Influenza CD8+ T-Cell Epitopes Enhances Their Immunogenicity Regardless of Immunodominance” (PLoS ONE, 2016) are described below.

One assay concerns the target T1, HLA-A*0301 (Homo sapiens, UniProt P04439).
T1 construct: Soluble MHC was dissolved in PBS containing 0.5 mg/ml bovine γ-globulin; made in house
It counts as binding.
Conditions: not given
Turning to ILRGSVAHK [I WT, reference compound], the “FP binding score, percentage inhibition of tracer peptide binding, 4h” value worked out at 66% and the “FP binding score, percentage inhibition of tracer peptide binding, 24h” value (from here on “FP binding score, percentage inhibition … 24h”) is listed as 87%.

As to ILRGSV[2-AOC]HK [I65], the “FP binding score, percentage inhibition of tracer peptide binding, 4h” value came out at 87% and the “FP binding score, percentage inhibition … 24h” value was determined as 94%.

As for ILRGSV[NLE]HK [I63], the “FP binding score, percentage inhibition of tracer peptide binding, 4h” value amounted to 74% and the “FP binding score, percentage inhibition … 24h” value came out at 89%.

Take IL[4-FPHE]GSVAHK [I94]: the “FP binding score, percentage inhibition of tracer peptide binding, 4h” value was 70% and the “FP binding score, percentage inhibition … 24h” value was determined as 89%.

Regarding I[AHA]RGSV[2-FUR]HK [I79], the “FP binding score, percentage inhibition of tracer peptide binding, 4h” value was 77% and the “FP binding score, percentage inhibition … 24h” value came out at 90%.

As for I[AHA]RGSV[CSET]HK [I73], the “FP binding score, percentage inhibition of tracer peptide binding, 4h” value turned out to be 74% and the “FP binding score, percentage inhibition … 24h” value worked out at 90%.

With I[AHA]RGSV[CpALA]HK [I77], the “FP binding score, percentage inhibition of tracer peptide binding, 4h” value came out at 71% and the “FP binding score, percentage inhibition … 24h” value amounted to 89%.

On to I[AHA]RGSV[NLE]HK [I74], for which the “FP binding score, percentage inhibition of tracer peptide binding, 4h” value turned out to be 77% and the “FP binding score, percentage inhibition … 24h” value was determined as 92%.

For the substance I[AHA][2-AOC]GSVAHK [I59], the “FP binding score, percentage inhibition of tracer peptide binding, 4h” value turned out to be 71% and the “FP binding score, percentage inhibition … 24h” value is recorded as 91%.

As to I[AHA][4-FPHE]GSVAHK [I87], the “FP binding score, percentage inhibition of tracer peptide binding, 4h” value is 73% and the “FP binding score, percentage inhibition … 24h” value is given as 91%.

As to I[AHA][CHA]GSVAHK [I89], the “FP binding score, percentage inhibition of tracer peptide binding, 4h” value was 75% and the “FP binding score, percentage inhibition … 24h” value was found to be 91%.

In the case of I[AHA][CSME]GSVAHK [I86], the “FP binding score, percentage inhibition of tracer peptide binding, 4h” value came out at 71% and the “FP binding score, percentage inhibition … 24h” value is 89%.

For the substance I[AHA][CpALA]GSVAHK [I83], the “FP binding score, percentage inhibition of tracer peptide binding, 4h” value was determined as 70% and the “FP binding score, percentage inhibition … 24h” value amounted to 89%.

Regarding I[AHA][NLE]GSVAHK [I58], the “FP binding score, percentage inhibition of tracer peptide binding, 4h” value turned out to be 68% and the “FP binding score, percentage inhibition … 24h” value is on record as 89%.

On to I[AHA][PRG]GSVAHK [I84], for which the “FP binding score, percentage inhibition of tracer peptide binding, 4h” value stood at 71% and the “FP binding score, percentage inhibition … 24h” value came out at 89%.

For I[AHA][SOME]GSVAHK [I85], the “FP binding score, percentage inhibition of tracer peptide binding, 4h” value came out at 69% and the “FP binding score, percentage inhibition … 24h” value is on record as 88%.

As for I[OrnN2]RGSVAHK [I49], the “FP binding score, percentage inhibition of tracer peptide binding, 4h” value is on record as 71% and the “FP binding score, percentage inhibition … 24h” value is reported as 90%.

With RMVLSAFDEK [R4], the “FP binding score, percentage inhibition of tracer peptide binding, 4h” value turned out to be 61% and the “FP binding score, percentage inhibition … 24h” value was found to be 69%.

Regarding RMVLSAFDER [R WT, reference compound], the “FP binding score, percentage inhibition of tracer peptide binding, 4h” value stood at 18% and the “FP binding score, percentage inhibition … 24h” value was 6%.

As for RMVLSAF[2-AOC]ER [R38], the “FP binding score, percentage inhibition of tracer peptide binding, 4h” value amounted to 69% and the “FP binding score, percentage inhibition … 24h” value came to 75%.

Turning to RMVLSAF[4-FPHE]ER [R40], the “FP binding score, percentage inhibition of tracer peptide binding, 4h” value stood at 63% and the “FP binding score, percentage inhibition … 24h” value was determined as 57%.

With RMVLSAF[AHA]ER [R81], the “FP binding score, percentage inhibition of tracer peptide binding, 4h” value was 71% and the “FP binding score, percentage inhibition … 24h” value is 76%.

For RMVLSAF[CSET]ER [R37], the “FP binding score, percentage inhibition of tracer peptide binding, 4h” value is reported as 60% and the “FP binding score, percentage inhibition … 24h” value was 60%.

For the substance RMVLSAF[CpALA]ER [R42], the “FP binding score, percentage inhibition of tracer peptide binding, 4h” value stood at 65% and the “FP binding score, percentage inhibition … 24h” value was 73%.

Consider RMVLSAF[NLE]ER [R36], for which the “FP binding score, percentage inhibition of tracer peptide binding, 4h” value came out at 66% and the “FP binding score, percentage inhibition … 24h” value is listed as 73%.

Turning to RMVLSAF[ORN]ER [R41], the “FP binding score, percentage inhibition of tracer peptide binding, 4h” value is on record as 65% and the “FP binding score, percentage inhibition … 24h” value stood at 63%.

As for RMVLSAF[PRG]ER [R39], the “FP binding score, percentage inhibition of tracer peptide binding, 4h” value is on record as 62% and the “FP binding score, percentage inhibition … 24h” value is given as 62%.

As for RM[2-AOC]LSAFDER [R50], the “FP binding score, percentage inhibition of tracer peptide binding, 4h” value came out at 70% and the “FP binding score, percentage inhibition … 24h” value was found to be 66%.

With RM[4-FPHE]LSAFDER [R55], the “FP binding score, percentage inhibition of tracer peptide binding, 4h” value is given as 70% and the “FP binding score, percentage inhibition … 24h” value was determined as 65%.

For the substance RM[OrnN2]LSAFDER [R83], the “FP binding score, percentage inhibition of tracer peptide binding, 4h” value is given as 71% and the “FP binding score, percentage inhibition … 24h” value is on record as 72%.

As for R[AHA]VLSAFDEK [R2], the “FP binding score, percentage inhibition of tracer peptide binding, 4h” value is reported as 58% and the “FP binding score, percentage inhibition … 24h” value is listed as 67%.

Regarding R[AHA]VLSAF[2-AOC]ER [R67], the “FP binding score, percentage inhibition of tracer peptide binding, 4h” value turned out to be 74% and the “FP binding score, percentage inhibition … 24h” value is 78%.

As to R[AHA]VLSAF[4-FPHE]ER [R68], the “FP binding score, percentage inhibition of tracer peptide binding, 4h” value turned out to be 67% and the “FP binding score, percentage inhibition … 24h” value is listed as 64%.

Regarding R[AHA]VLSAF[SOME]ER [R66], the “FP binding score, percentage inhibition of tracer peptide binding, 4h” value came to 63% and the “FP binding score, percentage inhibition … 24h” value is 63%.

In the case of R[NVA]VLSAFDKR [R59], the “FP binding score, percentage inhibition of tracer peptide binding, 4h” value worked out at 62% and the “FP binding score, percentage inhibition … 24h” value is recorded as 68%.

Consider R[NVA]VLSAF[2-AOC]ER [R71], for which the “FP binding score, percentage inhibition of tracer peptide binding, 4h” value is reported as 71% and the “FP binding score, percentage inhibition … 24h” value is given as 82%.

Take R[NVA]VLSAF[4-FPHE]ER [R72]: the “FP binding score, percentage inhibition of tracer peptide binding, 4h” value was 68% and the “FP binding score, percentage inhibition … 24h” value stood at 72%.

Turning to R[NVA]VLSAF[SOME]ER [R70], the “FP binding score, percentage inhibition of tracer peptide binding, 4h” value is listed as 64% and the “FP binding score, percentage inhibition … 24h” value stood at 74%.

In the case of SFSFGGFTK [S WT, reference compound], the “FP binding score, percentage inhibition of tracer peptide binding, 4h” value is 67% and the “FP binding score, percentage inhibition … 24h” value is 58%.

As to SF[4-FPHE]FGGFTK [S84], the “FP binding score, percentage inhibition of tracer peptide binding, 4h” value is listed as 82% and the “FP binding score, percentage inhibition … 24h” value is reported as 95%.

Consider S[AHA]RFGGFTK [S54], for which the “FP binding score, percentage inhibition of tracer peptide binding, 4h” value is reported as 80% and the “FP binding score, percentage inhibition … 24h” value is reported as 92%.

As for S[NVA]RFGGFTK [S53], the “FP binding score, percentage inhibition of tracer peptide binding, 4h” value was 80% and the “FP binding score, percentage inhibition … 24h” value was determined as 93%.

With S[NVA]SFGGFHK [S56], the “FP binding score, percentage inhibition of tracer peptide binding, 4h” value is 78% and the “FP binding score, percentage inhibition … 24h” value stood at 91%.

On to S[NVA]SFGGF[AHA]K [S90], for which the “FP binding score, percentage inhibition of tracer peptide binding, 4h” value turned out to be 78% and the “FP binding score, percentage inhibition … 24h” value is on record as 90%.

Turning to S[NVA]SFGGF[TOME]K [S92], the “FP binding score, percentage inhibition of tracer peptide binding, 4h” value amounted to 80% and the “FP binding score, percentage inhibition … 24h” value is 92%.

Consider S[NVA]SFGG[2-AOC]TK [S70], for which the “FP binding score, percentage inhibition of tracer peptide binding, 4h” value is recorded as 90% and the “FP binding score, percentage inhibition … 24h” value worked out at 96%.

Turning to S[NVA]SFGG[2-FUR]TK [S76], the “FP binding score, percentage inhibition of tracer peptide binding, 4h” value is reported as 75% and the “FP binding score, percentage inhibition … 24h” value stood at 91%.

Take S[NVA]SFGG[4-FPHE]TK [S72]: the “FP binding score, percentage inhibition of tracer peptide binding, 4h” value is on record as 79% and the “FP binding score, percentage inhibition … 24h” value is 93%.

Turning to S[NVA]SFGG[BPG]TK [S73], the “FP binding score, percentage inhibition of tracer peptide binding, 4h” value came out at 73% and the “FP binding score, percentage inhibition … 24h” value is 91%.

On to S[NVA]SFGG[CpALA]TK [S74], for which the “FP binding score, percentage inhibition of tracer peptide binding, 4h” value is 78% and the “FP binding score, percentage inhibition … 24h” value is on record as 94%.

With S[NVA]SFGG[NLE]TK [S68], the “FP binding score, percentage inhibition of tracer peptide binding, 4h” value is listed as 79% and the “FP binding score, percentage inhibition … 24h” value worked out at 93%.

With S[NVA]SFGG[NVA]TK [S69], the “FP binding score, percentage inhibition of tracer peptide binding, 4h” value is 72% and the “FP binding score, percentage inhibition … 24h” value was found to be 91%.

As for S[NVA]SFGG[PRG]TK [S71], the “FP binding score, percentage inhibition of tracer peptide binding, 4h” value was found to be 70% and the “FP binding score, percentage inhibition … 24h” value is listed as 90%.

On to S[NVA][2-AOC]FGGFTK [S50], for which the “FP binding score, percentage inhibition of tracer peptide binding, 4h” value was 83% and the “FP binding score, percentage inhibition … 24h” value turned out to be 94%.

Consider S[NVA][4-FPHE]FGGFTK [S95], for which the “FP binding score, percentage inhibition of tracer peptide binding, 4h” value is recorded as 80% and the “FP binding score, percentage inhibition … 24h” value worked out at 93%.

S[NVA][AHA]FGGFTK [S52]: the “FP binding score, percentage inhibition of tracer peptide binding, 4h” value came out at 80% and the “FP binding score, percentage inhibition … 24h” value was 93%.

Consider S[NVA][CSME]FGGFTK [S93], for which the “FP binding score, percentage inhibition of tracer peptide binding, 4h” value turned out to be 80% and the “FP binding score, percentage inhibition … 24h” value is 93%.

The assay is the same for the next values; noted with them: after 4h.
In the case of RMVLSAF[CSET]ER [R37], the “FP binding score HLA-A*0301, percentage inhibition, 4h” value is given as 60%.

As to RMVLSAF[PRG]ER [R39], the “FP binding score HLA-A*0301, percentage inhibition, 4h” value was 62%.

For the substance R[AHA]VLSAF[SOME]ER [R66], the “FP binding score HLA-A*0301, percentage inhibition, 4h” value stood at 63%.

Staying with this assay, now noted: after 24h.
Consider RMVLSAF[CSET]ER [R37], for which the “FP binding score HLA-A*0301, percentage inhibition, 24h” value was found to be 60%.

For the substance RMVLSAF[PRG]ER [R39], the “FP binding score HLA-A*0301, percentage inhibition, 24h” value came to 62%.

As to R[AHA]VLSAF[SOME]ER [R66], the “FP binding score HLA-A*0301, percentage inhibition, 24h” value was 63%.
